Assay [1] has as its target T1, (h)DAT (Homo sapiens, UniProt Q01959).
T1 construct: expressed in transfected cells
The assay is described as follows: competition binding with [125I]RTI-55 at (h)DAT stably expressed in HEK293 cells. The note with it: mean ± standard error of three independent experiments.

Assay [2] deals with T1, (h)DAT. Description: block of [3H]dopamine reuptake in HEK-(h)DAT cells. The format is cell-based. The note with it: for times more potent than bupropion as DA uptake inhibitor: relative to bupropion.
The test system of assay [3] is mice. Description: locomotor activity, 1-h observation protocol. The format is in vivo. As to conditions: Mus musculus; for Emax: 0.5 h, read-out: Locomotor Activity 1-Hour % Peak Cocaine; for ED50: dose to produce 50% of the compound's maximal effect, 1-h.
Assay [4] concerns mice. Description: locomotor activity, 8-h time course protocol. The format is in vivo. The note with it: for locomotor stimulant activity across the 1-h and 8-h protocols, in words: 1-h and 8-h tests compared; for Emax / ED50: Mus musculus; for Emax: read-out: Locomotor Activity 8-Hour % Peak Cocaine, percent of cocaine's maximal effect, 30 min period of maximum stimulation; for ED50: dose to produce 50% of the compound's maximal effect, 8-h, read-out: Locomotor Activity 8-Hour ED50; for Locomotor Activity 8-Hour Time, min Period, max: time period of maximum effect; for Locomotor Activity 8-Hour Time, min Period, length: duration of locomotor activity.

In assay [5] the target is T2, (h)NET (Homo sapiens, UniProt P23975). Description: block of [3H]norepinephrine reuptake in HEK-(h)NET cells. As to conditions: read-out: Uptake, IC50 [3H]NE; mean ± standard error of three independent experiments.
Assay [6] has as its system rats. Description: cocaine discrimination (2-lever operant), i.p. administration. As to conditions: Rattus norvegicus, ip.
Assay [7] relates to rats. The assay is described as follows: cocaine discrimination time-course study, oral administration. The note with it: for ED50: Rattus norvegicus, po, 0.75 h; for generalization to cocaine: p.o.
Assay [8] concerns the target T2, (h)NET. The assay is described as follows: competition binding with [125I]RTI-55 at (h)NET stably expressed in HEK293 cells. As to conditions: read-out: Binding, Ki NET; mean ± standard error of three independent experiments.
The mark [9] stands for this setting: mean ± standard error of three independent experiments, read-out: Uptake, IC50 [3H]DA.
Setting [10] is: read-out: % cocaine lever responding.
[11] abbreviates: read-out: Full Generalization ED50.
The mark [12] stands for this setting: [3H]DA, read-out: IC50 for DA uptake inhibition.

Read-outs that look alike come from different tables or passages of the source.

T2 sequence (P23975 whole entry): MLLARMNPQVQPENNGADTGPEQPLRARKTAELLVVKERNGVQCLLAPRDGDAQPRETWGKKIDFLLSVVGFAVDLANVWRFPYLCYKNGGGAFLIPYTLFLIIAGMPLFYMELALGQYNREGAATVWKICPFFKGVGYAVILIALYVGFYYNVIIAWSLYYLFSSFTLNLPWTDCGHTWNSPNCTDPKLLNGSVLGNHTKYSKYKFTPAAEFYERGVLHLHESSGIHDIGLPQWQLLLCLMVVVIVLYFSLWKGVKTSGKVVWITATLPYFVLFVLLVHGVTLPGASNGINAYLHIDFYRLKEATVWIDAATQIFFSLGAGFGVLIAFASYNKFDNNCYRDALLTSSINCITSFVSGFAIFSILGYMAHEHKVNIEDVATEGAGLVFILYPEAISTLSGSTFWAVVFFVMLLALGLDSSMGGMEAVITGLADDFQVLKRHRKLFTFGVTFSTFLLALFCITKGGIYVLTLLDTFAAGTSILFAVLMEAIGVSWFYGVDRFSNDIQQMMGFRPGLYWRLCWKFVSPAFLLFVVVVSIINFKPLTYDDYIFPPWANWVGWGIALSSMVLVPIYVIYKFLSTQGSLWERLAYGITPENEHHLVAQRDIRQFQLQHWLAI
T1 sequence (Q01959 whole entry): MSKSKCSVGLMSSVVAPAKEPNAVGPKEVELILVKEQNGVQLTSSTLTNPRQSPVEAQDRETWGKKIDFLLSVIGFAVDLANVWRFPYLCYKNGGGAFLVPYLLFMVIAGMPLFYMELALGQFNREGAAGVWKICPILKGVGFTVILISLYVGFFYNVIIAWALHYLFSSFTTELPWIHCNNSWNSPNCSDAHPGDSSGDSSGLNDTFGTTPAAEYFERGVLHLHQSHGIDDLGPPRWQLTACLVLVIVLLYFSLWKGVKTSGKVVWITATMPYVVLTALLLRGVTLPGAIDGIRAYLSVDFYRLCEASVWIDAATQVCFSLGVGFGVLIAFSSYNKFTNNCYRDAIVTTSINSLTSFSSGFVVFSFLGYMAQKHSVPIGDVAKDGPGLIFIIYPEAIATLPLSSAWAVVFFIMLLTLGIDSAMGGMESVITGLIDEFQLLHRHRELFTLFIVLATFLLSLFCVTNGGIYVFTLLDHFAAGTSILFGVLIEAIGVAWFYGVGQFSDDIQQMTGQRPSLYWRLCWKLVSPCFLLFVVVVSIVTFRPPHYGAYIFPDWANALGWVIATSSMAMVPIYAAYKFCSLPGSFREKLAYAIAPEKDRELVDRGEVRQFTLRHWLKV

The compound `CC(NC(C)(C)C)C(=O)c1ccccc1` (stereo not drawn) [Compound 2b, 2-(N-tert-Butylamino)propiophenone] gave an inhibition constant (Ki) in assay [1] of 5.73 µM. The IC50 in assay [2] (setting [9]) is 2.31 µM. For the same compound, in assay [3], the Emax is 120% and the ED50 came out at 8.1 mg/kg. Moreover, in assay [4], the “locomotor stimulant activity across the 1-h and 8-h protocols, in words” value is given as “strong stimulants in both studies”; the Emax worked out at 98%; the ED50 came out at 10.5 mg/kg; the “Locomotor Activity 8-Hour Time, min Period, max” value is 0 to 30 min. Further, the IC50 in assay [5] was found to be 8.7 µM. In addition, in assay [6] (setting [10]), the responders at 5 mg/kg came out at 3%, the responders at 10 mg/kg is 83% and the responders at 25 mg/kg stood at 83%. Also, in assay [6] (setting [11]), the ED50 worked out at 5.65 mg/kg. The compound further displayed an ED50 in assay [7] of 25.6 mg/kg. The inhibition constant (Ki) in assay [8] was determined as 5.7 µM.

In turn, `CC(NC(C)(C)C)C(=O)c1cccc(Br)c1` (stereo not drawn) [Compound 2d, 2-(N-tert-Butylamino)-3′-bromopropiophenone] gave an inhibitory constant (Ki) in assay [1] of 4.2 µM. Besides, the IC50 in assay [2] (setting [12]) amounted to 0.95 µM. For the same compound, in assay [3], the Emax was found to be 72% and the ED50 is 10.6 mg/kg. Also, in assay [4], the “locomotor stimulant activity across the 1-h and 8-h protocols, in words” value was “weak stimulants in both tests”; the Emax amounted to 57%; the ED50 was found to be 12.9 mg/kg; the “Locomotor Activity 8-Hour Time, min Period, length” value is listed as 120 min. The “Locomotor Activity 8-Hour Time, min Period, max” value in assay [4] was in the range of 0 to 30 min. The IC50 in assay [5] was 6.5 µM. For the same compound, in assay [6] (setting [10]), the responders at 5 mg/kg is 1%, the responders at 10 mg/kg stood at 27% and the responders at 25 mg/kg was 83%. Also, the ED50 in assay [6] (setting [11]) was 11.4 mg/kg. It took a dose of 52.4 mg/kg to reach the 50% effect level in assay [7] (ED50).

In the case of `CC(C(=O)c1cccc(Cl)c1)N(C)C` (stereo not drawn) [Compound 2dd, 2-(N,N-Dimethylamino)-3′-chloropropiophenone], the affinity in assay [1], expressed as Ki, was 4.13 µM. The IC50 in assay [2] (setting [12]) was found to be 1.53 µM. Further, in assay [3], the Emax stood at 100% and the 50% effect level (ED50) was put at a dose of 11 mg/kg. Further, in assay [4], the “locomotor stimulant activity across the 1-h and 8-h protocols, in words” value is listed as “activity similar to cocaine in the 1-h protocol but weakened significantly in the 8-h time-course study”; the Emax came to 52%; the ED50 is 13.9 mg/kg; the “Locomotor Activity 8-Hour Time, min Period, length” value lay within 180 to 190 min. In assay [4], the “Locomotor Activity 8-Hour Time, min Period, max” value was 90 to 120 min. In assay [5], the IC50 was 1.26 µM. Further, in assay [6] (setting [10]), the responders at 5 mg/kg came to 0%, the responders at 10 mg/kg came to 83%, the responders at 25 mg/kg came to 83% and the responders at 50 mg/kg was determined as 10%. Moreover, the median effective dose (ED50) in assay [6] (read-out: ED50 for cocaine generalization) was found to be 4.84 mg/kg. Also, the ED50 in assay [6] (setting [11]) amounted to 4.84 mg/kg. This compound yielded an ED50 in assay [7] of 5.36 mg/kg. The Ki in assay [8] is 3.09 µM.

For `CCN(CC)C(C)C(=O)c1cccc(Cl)c1` (stereo not drawn) [Compound 2ee, 2-(N,N-Diethylamino)-3′-chloropropiophenone], in assay [1], the Ki amounted to 2.21 µM. Besides, the IC50 in assay [2] (setting [9]) was 1.74 µM. Also, in assay [3], the Emax came out at 55% and the ED50 worked out at 16.6 mg/kg. In assay [4], the “locomotor stimulant activity across the 1-h and 8-h protocols, in words” value is “moderate activity in the 1-h test with increased activity in the time-course study”; the Emax is 90%; the ED50 worked out at 20 mg/kg; the “Locomotor Activity 8-Hour Time, min Period, length” value was 130 to 240 min. In addition, the “Locomotor Activity 8-Hour Time, min Period, max” value in assay [4] lay within 20 to 50 min. The IC50 in assay [5] was determined as 4.6 µM. Moreover, in assay [6] (setting [10]), the responders at 5 mg/kg amounted to 1%, the responders at 10 mg/kg is 66% and the responders at 25 mg/kg came to 82%. Moreover, in assay [6] (setting [11]), the ED50 came to 5.88 mg/kg. Moreover, the inhibition constant (Ki) in assay [8] worked out at 4.48 µM.

On to `CCCC(NC(C)(C)C)C(=O)c1cccc(Cl)c1` (stereo not drawn) [Compound 2p, 2-(N-tert-Butylamino)-3′-chloropentanophenone], for which the Ki in assay [1] was determined as 0.096 µM; in assay [8], 1.17 µM. The IC50 in assay [2] (setting [9]) worked out at 0.033 ± 0.007 µM; in assay [5], 0.472 µM. In assay [2], the “times more potent than bupropion as DA uptake inhibitor” value is reported as 29 times. Also, the Emax in assay [3] was found to be 96%; in assay [4], 72%. The ED50 in assay [3] came to 17.2 mg/kg; in assay [4], 16.3 mg/kg; in assay [6] (setting [11]) it was 11.9 mg/kg; in assay [7], 22.2 mg/kg. Moreover, the “locomotor stimulant activity across the 1-h and 8-h protocols, in words” value in assay [4] is “activity similar to cocaine in the 1-h protocol but weakened significantly in the 8-h time-course study”. Besides, the “Locomotor Activity 8-Hour Time, min Period, length” value in assay [4] is 210 to 480 min. Further, the “Locomotor Activity 8-Hour Time, min Period, max” value in assay [4] was 90 to 120 min. In assay [6] (setting [10]), the responders at 5 mg/kg came out at 1%. For the same compound, in assay [6] (setting [10]), the responders at 10 mg/kg was 33%. In addition, the responders at 25 mg/kg in assay [6] (setting [10]) was 83%. The generalization to cocaine entry was “partial generalization” in assay [7] (45 min, 50 mg/kg); “full generalization” in assay [7] (45 min, 100 mg/kg); “full generalization” in assay [7] (90 min, 100 mg/kg); “partial generalization” in assay [7] (180 min, 100 mg/kg).

As to `CCCCC(NC(C)(C)C)C(=O)c1cccc(Cl)c1` (stereo not drawn) [Compound 2q, 2-(N-tert-Butylamino)-3′-chlorohexanophenone], the affinity in assay [1] corresponds to a Ki of 0.35 µM. Moreover, in assay [2] (setting [12]), the IC50 came to 0.069 µM. For the same compound, the “times more potent than bupropion as DA uptake inhibitor” value in assay [2] amounted to 14 times. In assay [3], the Emax came to 81% and the 50% effective dose (ED50) was determined as 13.5 mg/kg. In addition, in assay [4], the Emax was determined as 110%; the ED50 stood at 13.1 mg/kg; the “Locomotor Activity 8-Hour Time, min Period, length” value fell in the range of 40 to 460 min; the “Locomotor Activity 8-Hour Time, min Period, max” value lay within 0 to 30 min. For the same compound, in assay [5], the IC50 amounted to 0.4 µM. Also, in assay [6] (setting [10]), the responders at 5 mg/kg was found to be 1%, the responders at 10 mg/kg stood at 67% and the responders at 25 mg/kg came out at 10%. Moreover, the ED50 in assay [6] (setting [11]) amounted to 8.17 mg/kg. This compound registered an ED50 in assay [7] of 37.9 mg/kg. The Ki in assay [8] came out at 3.19 µM.

In assay [1], `CCCCCC(NC(C)(C)C)C(=O)c1cccc(Cl)c1` (stereo not drawn) [Compound 2r, 2-(N-tert-Butylamino)-3′-chloroheptanophenone] had a Ki of 0.709 µM. In addition, the IC50 in assay [2] (setting [9]) turned out to be 1.57 µM. In assay [3], the Emax worked out at 66% and the ED50 is 5.82 mg/kg. Also, in assay [4], the “locomotor stimulant activity across the 1-h and 8-h protocols, in words” value is “weak stimulants in both tests”; the Emax is 78%; the ED50 is 13.4 mg/kg; the “Locomotor Activity 8-Hour Time, min Period, length” value lay in the range of 280 to 460 min. Further, the “Locomotor Activity 8-Hour Time, min Period, max” value in assay [4] was 60 to 90 min. Moreover, the IC50 in assay [5] amounted to 2 µM. In addition, in assay [6] (setting [10]), the responders at 5 mg/kg stood at 0%, the responders at 10 mg/kg turned out to be 0%, the responders at 25 mg/kg amounted to 34% and the responders at 50 mg/kg was 17%. Further, in assay [8], the Ki stood at 4.3 µM.

For the compound `CCCCCCC(NC(C)(C)C)C(=O)c1cccc(Cl)c1` (stereo not drawn) [Compound 2s, 2-(N-tert-Butylamino)-3′-chlorooctanophenone], the affinity in assay [1], expressed as Ki, was 0.51 µM. Also, the half-inhibitory concentration (IC50) in assay [2] (setting [12]) stood at 0.135 µM. In addition, in assay [3], the Emax came out at 61% and the 50% effect level (ED50) was put at a dose of 33.3 mg/kg. In assay [4], the “locomotor stimulant activity across the 1-h and 8-h protocols, in words” value is on record as “weak stimulants in both tests”; the Emax stood at 60%; the ED50 is 9 mg/kg; the “Locomotor Activity 8-Hour Time, min Period, length” value lay within 130 to 140 min. Also, in assay [4], the “Locomotor Activity 8-Hour Time, min Period, max” value was in the range of 110 to 140 min. In addition, the IC50 in assay [5] was found to be 4.89 µM. Moreover, in assay [6] (setting [10]), the responders at 5 mg/kg came to 0%, the responders at 10 mg/kg is 0%, the responders at 25 mg/kg came to 49% and the responders at 50 mg/kg is 50%. In addition, in assay [6] (setting [10]), the responders at 100 mg/kg turned out to be 67%. Also, the ED50 in assay [7] came to 37.9 mg/kg. Besides, in assay [8], the Ki came to 2.58 µM.

The record behind these values is patent publication US10919841B2, “Monoamine reuptake inhibitors” (Research Triangle Institute, priority 2009, dated 2021).
